Here are results for 17 molecules from ChEMBL document CHEMBL4396865, “Current advances of triazole alcohols derived from fluconazole: Design, in vitro and in silico studies” (2019).

The structures appear in SMILES notation. Converted amounts (≈) assume the structure as drawn.

Broadly, the MIC is the lowest concentration found to suppress growth. A lower MIC goes with inhibition by little substance. A word on the MIC80: it is the lowest concentration that inhibits either 80% of growth or 80% of the strains tested, depending on the study.

What all share (type): functional
In one assay the test system is Candida albicans. In words: Antifungal activity against Candida albicans after 24 hrs by NCCLS protocol based method.
A further assay relates to Candida tropicalis. In words: Antifungal activity against Candida tropicalis after 24 hrs by NCCLS protocol based method.
The test system of a further assay is Nannizzia gypsea. In words: Antifungal activity against Microsporum gypseum after 7 days by NCCLS protocol based method. The settings on record: 168 h.
Another assay concerns Trichophyton rubrum. As to the kind of experiment: Antifungal activity against Trichophyton rubrum after 7 days by NCCLS protocol based method. Particulars: 168 h.
A further assay concerns Cryptococcus neoformans. As to the kind of experiment: Antifungal activity against Cryptococcus neoformans after 72 hrs by NCCLS protocol based method.
The test system of a further assay is Fonsecaea compacta. In words: Antifungal activity against Fonsecaea compacta after 24 hrs by NCCLS protocol based method.
The next assay deals with Candida parapsilosis. As to the kind of experiment: Antifungal activity against Candida parapsilosis after 24 hrs by NCCLS protocol based method. Particulars: Lodderomyces parapsilosis.

Turning to `Cc1ccc(OCCCN(C)CC(O)(Cn2cncn2)c2ccc(F)cc2F)cc1` (stereo not drawn), the MIC in the assay on Candida albicans, against Candida tropicalis, against Nannizzia gypsea, with Trichophyton rubrum and in the assay with Cryptococcus neoformans was 1 ng/mL (≈ 2.4 nM) in each case.

In the case of `COc1cccc(C(=O)OC2CCN(CC(O)(Cn3cncn3)c3ccc(F)cc3F)CC2)c1` (stereo not drawn), the MIC80 against Fonsecaea compacta, against Candida albicans, in the assay with Candida parapsilosis, against Candida tropicalis, in the assay on Trichophyton rubrum and against Cryptococcus neoformans was 3.9 to 62.5 ng/mL (≈ 8.25 to 132 nM) throughout.

Consider `O=C(OC1CCN(CC(O)(Cn2cncn2)c2ccc(F)cc2F)CC1)c1ccccc1Br` (stereo not drawn), for which the MIC80 against Fonsecaea compacta, with Candida albicans, in the assay with Candida parapsilosis, against Candida tropicalis, in the assay on Trichophyton rubrum and against Cryptococcus neoformans was 3.9 to 62.5 ng/mL (≈ 7.48 to 120 nM) throughout.

In the case of `CN(CCCOc1ccccc1[N+](=O)[O-])CC(O)(Cn1cncn1)c1ccc(F)cc1F` (stereo not drawn), the MIC against Candida albicans, against Candida tropicalis, in the assay with Nannizzia gypsea, with Trichophyton rubrum and in the assay with Cryptococcus neoformans was 1 to 16 ng/mL (≈ 2.23 to 35.8 nM) each time.

Consider `O=C(OC1CCN(CC(O)(Cn2cncn2)c2ccc(F)cc2F)CC1)c1ccccc1F` (stereo not drawn), for which the MIC80 against Fonsecaea compacta, in the assay with Candida albicans, against Candida parapsilosis, in the assay with Candida tropicalis, in the assay on Trichophyton rubrum and in the assay with Cryptococcus neoformans was 3.9 to 62.5 ng/mL (≈ 8.47 to 136 nM) throughout.

As to `CCC(C)n1ncn(-c2ccc(N3CCN(c4ccc(OCC5COC(Cn6cncn6)(c6ccc(Cl)cc6Cl)O5)cc4)CC3)cc2)c1=O` (stereo not drawn) [ITRACONAZOLE], the MIC with Candida albicans, with Candida tropicalis, in the assay with Nannizzia gypsea, against Trichophyton rubrum and in the assay on Cryptococcus neoformans was 62.5 ng/mL (≈ 88.6 nM) in each case.

As for `Cc1cccc(OCCCN(C)CC(O)(Cn2cncn2)c2ccc(F)cc2F)c1` (stereo not drawn), the MIC in the assay with Candida albicans, with Candida tropicalis, against Nannizzia gypsea, against Trichophyton rubrum and against Cryptococcus neoformans was 1 ng/mL (≈ 2.4 nM) each time.

With `CCc1ccc(C(=O)OC2CCN(CC(O)(Cn3cncn3)c3ccc(F)cc3F)CC2)cc1` (stereo not drawn), the MIC80 against Fonsecaea compacta, in the assay with Candida albicans, in the assay with Candida parapsilosis, in the assay on Candida tropicalis, against Trichophyton rubrum and against Cryptococcus neoformans was 3.9 to 62.5 ng/mL (≈ 8.29 to 133 nM) throughout.

Turning to `Cc1cccc(C(=O)OC2CCN(CC(O)(Cn3cncn3)c3ccc(F)cc3F)CC2)c1` (stereo not drawn), the MIC80 against Fonsecaea compacta, in the assay on Candida albicans, in the assay with Candida parapsilosis, in the assay on Candida tropicalis, in the assay on Trichophyton rubrum and against Cryptococcus neoformans was 3.9 to 62.5 ng/mL (≈ 8.54 to 137 nM) in each case.

On to `CN(CCCCOc1ccc([N+](=O)[O-])cc1)CC(O)(Cn1cncn1)c1ccc(F)cc1F` (stereo not drawn), for which the MIC against Candida albicans, against Candida tropicalis, against Nannizzia gypsea, with Trichophyton rubrum and against Cryptococcus neoformans was 1 ng/mL (≈ 2.17 nM) each time.

In the case of `O=C(OC1CCN(CC(O)(Cn2cncn2)c2ccc(F)cc2F)CC1)c1ccccc1I` (stereo not drawn), the MIC80 in the assay with Fonsecaea compacta, in the assay on Candida albicans, in the assay with Candida parapsilosis, with Candida tropicalis, in the assay with Trichophyton rubrum and in the assay with Cryptococcus neoformans was 3.9 to 62.5 ng/mL (≈ 6.86 to 110 nM) in each case.

Turning to `CC(C)(C)c1ccc(C(=O)OC2CCN(CC(O)(Cn3cncn3)c3ccc(F)cc3F)CC2)cc1` (stereo not drawn), the MIC80 in the assay with Fonsecaea compacta, with Candida albicans, against Candida parapsilosis, against Candida tropicalis, in the assay with Trichophyton rubrum and in the assay on Cryptococcus neoformans was 3.9 to 62.5 ng/mL (≈ 7.82 to 125 nM) throughout.

Turning to `CN(CCCOc1ccc(F)cc1)CC(O)(Cn1cncn1)c1ccc(F)cc1F` (stereo not drawn), the MIC against Candida albicans, against Candida tropicalis, with Nannizzia gypsea, in the assay on Trichophyton rubrum and against Cryptococcus neoformans was 1 to 16 ng/mL (≈ 2.38 to 38.1 nM) each time.

Regarding `CCCCCCc1ccc(C(=O)OC2CCN(CC(O)(Cn3cncn3)c3ccc(F)cc3F)CC2)cc1` (stereo not drawn), the MIC80 in the assay with Fonsecaea compacta, against Candida albicans, with Candida parapsilosis, in the assay on Candida tropicalis, with Trichophyton rubrum and in the assay with Cryptococcus neoformans was 3.9 to 62.5 ng/mL (≈ 7.41 to 119 nM) each time.

In the case of `CN(CCCOc1ccc(C(C)(C)C)cc1)CC(O)(Cn1cncn1)c1ccc(F)cc1F` (stereo not drawn), the MIC with Candida albicans, in the assay on Candida tropicalis, against Nannizzia gypsea, with Trichophyton rubrum and against Cryptococcus neoformans was 1 to 16 ng/mL (≈ 2.18 to 34.9 nM) throughout.

As to `Cc1ccc(OCCCCN(C)CC(O)(Cn2cncn2)c2ccc(F)cc2F)cc1` (stereo not drawn), the MIC in the assay with Candida albicans, in the assay with Candida tropicalis, in the assay with Nannizzia gypsea, in the assay on Trichophyton rubrum and in the assay with Cryptococcus neoformans was 1 ng/mL (≈ 2.32 nM) throughout.

Take `CN(CCCCOc1cccc([N+](=O)[O-])c1)CC(O)(Cn1cncn1)c1ccc(F)cc1F` (stereo not drawn): the MIC in the assay on Candida albicans, against Candida tropicalis, with Nannizzia gypsea, in the assay on Trichophyton rubrum and in the assay with Cryptococcus neoformans was 1 to 16 ng/mL (≈ 2.17 to 34.7 nM) in each case.
